Experiments:
[1] = Evaluation of hygroscopicity (weight change in desiccators at set relative humidity); type: physicochemical; details: for Weight change: two days or more, 60 mg
Procedure: The crystalline form A of enavogliflozin in the known Korean Unexamined Patent Application Publication No. 2017-0142904 and the enavogliflozin crystalline form E were taken in amounts of 60 mg each and placed in desiccators at relative humidity of 11%, 33%, 54%, 75%, and 93%, each for two days or more to absorb moisture, and then the weight change was measured.

[2] = Stress stability evaluation for moisture (93% RH), HPLC purity; type: physicochemical; details: for Purity: 93% RH
Excerpt: (§1) To confirm the possibility of commercializing the novel crystalline form E of enavogliflozin of the present invention, the crystalline form A of enavogliflozin in Korean Unexamined Patent Application Publication No. 2017-0142904 was used as a control to test stress stability, and analyzed by high performance liquid chromatography (HPLC), and the results are shown in Tables 4 and 5.

[3] = Stress stability evaluation for heat (60° C.), HPLC purity; type: physicochemical; details: for Purity: 60° C.
Excerpt: as §1

[4] = Pharmacokinetic study in beagle dogs, oral administration; type: in vivo, beagle dog; details: 1 mg/kg
Procedure: Pharmacokinetic profiles of crystalline form A of enavogliflozin and the novel crystalline form E were to be confirmed in beagle dogs. The crystalline form A of enavogliflozin was set as a control, the novel crystalline form E was set as a comparison group, and each of the crystalline form A of enavogliflozin and the novel crystalline form E was orally administered to a male beagle dog at a dose of 1 mg/kg, and blood samples were collected before administration (0 hours), and at 0.083, 0.25, 0.5, 0.75, 1, 1.5, 2, 4, 6, 8, 12, and 24 hours (a total of 13 times). Blood drug concentrations were analyzed by LC-MS/MS using plasma separated from the collected samples, and pharmacokinetic parameters such as the maximum observed plasma concentration (Cmax), an area under the plasma concentration-time curve (AUClast and AUCinf), a time-to-maximum observed plasma concentration (Tmax), and a half-life (T1/2) were calculated and interpreted using the WinNonlin 5.0.1 program.

[5] = beagle dog, relative to crystalline form A

## OC[C@H]1O[C@@H](c2cc(Cc3ccc(C4CC4)cc3)c(Cl)c3c2CCO3)[C@H](O)[C@@H](O)[C@@H]1O [Crystalline form A of enavogliflozin, enavogliflozin]
[1]; relative humidity 11%
  Weight change: 0%
[1]; relative humidity 33%
  Weight change: 0.5%
[1]; relative humidity 54%
  Weight change: 0.5%
[1]; relative humidity 75%
  Weight change: 0.5%
[1]; relative humidity 93%
  Weight change: 0.5%
[2]; Initial, HPLC
  Purity: 99.8%
[2]; Week 2, HPLC
  Purity: 99.8%
[2]; Week 4, HPLC
  Purity: 99.8%
[3]; Initial, HPLC
  Purity: 99.1%
[3]; Week 2, HPLC
  Purity: 98.8%
[3]; Week 4, HPLC
  Purity: 99.1%
[3]; Week 8, HPLC
  Purity: 99.5%

## OC[C@H]1O[C@@H](c2cc(Cc3ccc(C4CC4)cc3)c(Cl)c3c2CCO3)[C@H](O)[C@@H](O)[C@@H]1O [Crystalline form E of enavogliflozin, enavogliflozin]
[1]; relative humidity 11% to 93%
  Hygroscopicity compared to crystalline form A (in words): more improved hygroscopicity
[1]; relative humidity 11%
  Weight change: 0%
[1]; relative humidity 33%
  Weight change: 0.3%
[1]; relative humidity 54%
  Weight change: 0.3%
[1]; relative humidity 75%
  Weight change: 0.3%
[1]; relative humidity 93%
  Weight change: 0.3%
[4]; [5]
  PK exposure parameters AUClast and AUCinf compared to crystalline form A (in words): increased
  Tmax reduction compared to crystalline form A: ≥ 1.25 times
[4]; male beagle dog, plasma
  AUC(0-inf): 4820 ng·h/mL
  AUC(0-t): 4540 ng·h/mL
  Cmax: 470 ng/mL
  Tmax: 3.2 h
  half-life: 5.04 h
[2]; 4 weeks at 93% RH
  Stress stability, purity and crystalline form (in words): stably maintained
[2]; Initial, HPLC
  Purity: 99.0%
[2]; Week 2, HPLC
  Purity: 99.3%
[2]; Week 4, HPLC
  Purity: 99.3%
[3]; 8 weeks at 60° C.
  Stress stability, purity and crystalline form (in words): stably maintained
[3]; Initial, HPLC
  Purity: 99.0%
[3]; Week 2, HPLC
  Purity: 99.2%
[3]; Week 4, HPLC
  Purity: 99.2%
[3]; Week 8, HPLC
  Purity: 99.5%

From US20260098033A1, “NOVEL CRYSTALLINE FORM OF ENAVOGLIFLOZIN, AND PREPARATION METHOD THEREFOR” (DAEWOONG PHARMACEUTICAL CO., LTD., priority 2022, published 2026)
